Results as given in US9957263B2, “Bromodomain inhibitors” (AbbVie Inc., priority 2013, dated 2018).

Experiments:
[1] = system: breast cancer cell line MX-1; assay: MX-1 cell line proliferation assay, Method B; assay type: cell-based; details: Homo sapiens, MX1; MX-1 cells, 384-well, 72 hours, Cell Titer Glo; read-out: Cellular proliferation: EC50 Method B
Method: The impact of compounds of the Examples on cancer cell proliferation was determined using the breast cancer cell line MX-1 (ATCC) in a 3-day proliferation assay and the data are reported in Table 1.
Method B: MX-1 cells were maintained in RPMI 1640 medium (Sigma) supplemented with 10% FBS at 37 C.° and an atmosphere of 5% CO2. For compound testing, MX-1 cells were plated in 384-well white with clear, flat bottom plates at a density of 750 cells/well in 25 μL of culture media and incubated at 370 overnight to allow cell adhesion and spreading. Ten point compound dilution series were prepared in DMSO via a 3-fold serial dilution from either […] or 1 μM stock and added directly to the appropriate wells of the MX-1 cell plate by an ECHO liquid handler (Labcyte). The final compound concentrations in the wells were 10, 3.25, 1, 0.25, 0.124, 0.040, 0.0124, 0.0031, 0.0015 and 0.0005 μM or 1, 0.33, 0.1, 0.025, 0.0124, 0.004, 0.0012, 0.0003, 0.00015, 0.00005 μM, depending on the concentration of the compound stock solution.
Luminescence readings from the Cell Titer Glo assay were normalized to the DMSO treated cells and analyzed using Accelrys Assay Explorer 3.3 software with sigmoidal curve fitting to obtain ECsos. The minimum significant ratio (MSR) was determined to evaluate assay reproducibility (Eastwood et al., (2006) J Biomol Screen, 11: 253-261). The overall MSR was determined to be 3.3 and a moving MSR (last six run MSR overtime) has averaged

BRD4 (BDII_E352-M457) = BRD4 (BDII_E352-M457) (Homo sapiens (Human), UniProt O60885); assay: TR-FRET bromodomain binding assay, BRD4 second bromodomain; details: His-tagged BD2, Alexa647-labeled probe 30 nM
How it was run: (§1)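 His-tagged BRD4 BD1 (K57-E168) or BD2 at 8 nM, 1 nM Eu-anti-His antibody and Alexa647 BET-inhibitor probe (100 nM for BDI, 30 nM for BDII) in pH 6.0 phosphate buffer, 2% DMSO, compound 50 μM-0.85 nM; 1 h at RT, TR-FRET read. IC50 by 4-parameter fit, Ki from probe Kd and concentration.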

BRD4 (BDI_K57-E168) = BRD4 (BDI_K57-E168) (Homo sapiens (Human), UniProt O60885); assay: TR-FRET bromodomain binding assay, BRD4 first bromodomain; details: His-tagged BD1, Alexa647-labeled probe 100 nM
How it was run: as §1

## CCNC(=O)c1cc2c(-c3ccc(C(=O)N(CC#N)c4cccc(Cl)c4)cc3Oc3c(C)cccc3C)cn(C)c(=O)c2[nH]1 [Example 168, 4-{4-[(3-chlorophenyl)(cyanomethyl)carbamoyl]-2-(2,6-dimethylphenoxy)phenyl}-N-ethyl-6-methyl-7-oxo-6,7-dihydro-1H-pyrrolo[2,3-c]pyridine-2-carboxamide]
[1]
  EC50: 3060 nM
BRD4 (BDII_E352-M457)
  Ki: 22.3 nM
BRD4 (BDI_K57-E168)
  Ki: 2310 nM

## CCNC(=O)c1cc2c(-c3ccc(C(=O)N(CC#N)c4ccc(Cl)cc4)cc3Oc3c(C)cccc3C)cn(C)c(=O)c2[nH]1 [Example 169, 4-{4-[(4-chlorophenyl)(cyanomethyl)carbamoyl]-2-(2,6-dimethylphenoxy)phenyl}-N-ethyl-6-methyl-7-oxo-6,7-dihydro-1H-pyrrolo[2,3-c]pyridine-2-carboxamide]
[1]
  EC50: 2170 nM
BRD4 (BDII_E352-M457)
  Ki: 27.8 nM
BRD4 (BDI_K57-E168)
  Ki: 1400 nM

## CCNC(=O)c1cc2c(-c3ccc(C(=O)N(CCN(CC)CC)c4ccccc4C)cc3Oc3c(C)cccc3C)cn(C)c(=O)c2[nH]1 [Example 170, 4-[4-{[2-(diethylamino)ethyl](2-methylphenyl)carbamoyl}-2-(2,6-dimethylphenoxy)phenyl]-N-ethyl-6-methyl-7-oxo-6,7-dihydro-1H-pyrrolo[2,3-c]pyridine-2-carboxamide]
[1]
  EC50: 2170 nM
BRD4 (BDII_E352-M457)
  Ki: 4.22 nM
BRD4 (BDI_K57-E168)
  Ki: 863 nM

## CCNC(=O)c1cc2c(-c3ccc(C(=O)N(CC#N)c4cccc(C(F)(F)F)c4)cc3Oc3c(C)cccc3C)cn(C)c(=O)c2[nH]1 [Example 171, 4-[4-{(cyanomethyl)[3-(trifluoromethyl)phenyl]carbamoyl}-2-(2,6-dimethylphenoxy)phenyl]-N-ethyl-6-methyl-7-oxo-6,7-dihydro-1H-pyrrolo[2,3-c]pyridine-2-carboxamide]
[1]
  EC50: 6410 nM
BRD4 (BDII_E352-M457)
  Ki: 38.3 nM
BRD4 (BDI_K57-E168)
  Ki: > 12700 nM

## CCNC(=O)c1cc2c(-c3ccc(C(=O)N(CCCN(C)C)C4CCCCC4)cc3Oc3c(C)cccc3C)cn(C)c(=O)c2[nH]1 [Example 172, 4-[4-{cyclohexyl[3-(dimethylamino)propyl]carbamoyl}-2-(2,6-dimethylphenoxy)phenyl]-N-ethyl-6-methyl-7-oxo-6,7-dihydro-1H-pyrrolo[2,3-c]pyridine-2-carboxamide]
[1]
  EC50: 2540 nM
BRD4 (BDII_E352-M457)
  Ki: 6.66 nM
BRD4 (BDI_K57-E168)
  Ki: 1000 nM

## CCNC(=O)c1cc2c(-c3ccc(C(=O)N(Cc4ccccc4)Cc4ccc(Cl)cc4)cc3Oc3c(C)cccc3C)cn(C)c(=O)c2[nH]1 [Example 173, 4-{4-[benzyl(4-chlorobenzyl)carbamoyl]-2-(2,6-dimethylphenoxy)phenyl}-N-ethyl-6-methyl-7-oxo-6,7-dihydro-1H-pyrrolo[2,3-c]pyridine-2-carboxamide]
[1]
  EC50: 5250 nM
BRD4 (BDII_E352-M457)
  Ki: 64.3 nM
BRD4 (BDI_K57-E168)
  Ki: > 12700 nM

## CCNC(=O)c1cc2c(-c3ccc(C(=O)N(CCN(C)C)c4ncccn4)cc3Oc3c(C)cccc3C)cn(C)c(=O)c2[nH]1 [Example 174, 4-[4-{[2-(dimethylamino)ethyl](pyrimidin-2-yl)carbamoyl}-2-(2,6-dimethylphenoxy)phenyl]-N-ethyl-6-methyl-7-oxo-6,7-dihydro-1H-pyrrolo[2,3-c]pyridine-2-carboxamide]
[1]
  EC50: 1610 nM
BRD4 (BDII_E352-M457)
  Ki: 13.3 nM
BRD4 (BDI_K57-E168)
  Ki: 2300 nM

## CCNC(=O)c1cc2c(-c3ccc(C(=O)N(CCC#N)c4cccc(Cl)c4)cc3Oc3c(C)cccc3C)cn(C)c(=O)c2[nH]1 [Example 175, 4-{4-[(3-chlorophenyl)(2-cyanoethyl)carbamoyl]-2-(2,6-dimethylphenoxy)phenyl}-N-ethyl-6-methyl-7-oxo-6,7-dihydro-1H-pyrrolo[2,3-c]pyridine-2-carboxamide]
[1]
  EC50: 2410 nM
BRD4 (BDII_E352-M457)
  Ki: 17.5 nM
BRD4 (BDI_K57-E168)
  Ki: 2230 nM

## CCNC(=O)c1cc2c(-c3ccc(C(=O)N(CCC#N)C4CCCCC4)cc3Oc3c(C)cccc3C)cn(C)c(=O)c2[nH]1 [Example 176, 4-{4-[(2-cyanoethyl)(cyclohexyl)carbamoyl]-2-(2,6-dimethylphenoxy)phenyl}-N-ethyl-6-methyl-7-oxo-6,7-dihydro-1H-pyrrolo[2,3-c]pyridine-2-carboxamide]
[1]
  EC50: 3910 nM
BRD4 (BDII_E352-M457)
  Ki: 8.65 nM
BRD4 (BDI_K57-E168)
  Ki: 927 nM
